Test system: A549
Assay: cells
Conditions: Homo sapiens, A549, 72 h

| SMILES | IC50 [nM] |
| --- | --- |
| COc1cc(N2CCN(CC(=O)N3CCSCC3)C2=O)ccc1Nc1ncc(Cl)c(Nc2ccccc2S(=O)(=O)C(C)C)n1 | 1270 |
| CNC(=O)CN1CCN(c2ccc(Nc3ncc(Cl)c(Nc4ccccc4S(=O)(=O)C(C)C)n3)c(OC)c2)C1=O | 140 |
| CCN(CC)C(=O)CN1CCN(c2ccc(Nc3ncc(Cl)c(Nc4ccccc4S(=O)(=O)C(C)C)n3)c(OC)c2)C1=O | 1490 |
| COc1cc(N2CCN(C[C@@H]3CO3)C2=O)ccc1Nc1ncc(Cl)c(Nc2ccccc2S(=O)(=O)C(C)C)n1 | 2820 |
| COc1cc(N2CCN(CC(=O)N3CCC(C)CC3)C2=O)ccc1Nc1ncc(Cl)c(Nc2ccccc2S(=O)(=O)C(C)C)n1 | 2360 |
| COc1cc(N2CCN(C(=O)C3CCOCC3)C2=O)ccc1Nc1ncc(Cl)c(Nc2ccccc2S(=O)(=O)C(C)C)n1 | > 5000 |
| COc1cc(N2CCN(CC(=O)N3CCC[C@H]3CO)C2=O)ccc1Nc1ncc(Cl)c(Nc2ccccc2S(=O)(=O)C(C)C)n1 | 1160 |

Test system: KARPAS-299
Assay: cells
Conditions: Homo sapiens, KARPAS-299, 72 h
Description: Cytotoxicity against human KARPAS299 cells incubated for 72 hrs by MTT assay

| SMILES | IC50 [nM] |
| --- | --- |
| COc1cc(N2CCN(CC(=O)N3CCSCC3)C2=O)ccc1Nc1ncc(Cl)c(Nc2ccccc2S(=O)(=O)C(C)C)n1 | 370 |
| CNC(=O)CN1CCN(c2ccc(Nc3ncc(Cl)c(Nc4ccccc4S(=O)(=O)C(C)C)n3)c(OC)c2)C1=O | 760 |
| CCN(CC)C(=O)CN1CCN(c2ccc(Nc3ncc(Cl)c(Nc4ccccc4S(=O)(=O)C(C)C)n3)c(OC)c2)C1=O | 170 |
| COc1cc(N2CCN(C[C@@H]3CO3)C2=O)ccc1Nc1ncc(Cl)c(Nc2ccccc2S(=O)(=O)C(C)C)n1 | 170 |
| COc1cc(N2CCN(CC(=O)N3CCC(C)CC3)C2=O)ccc1Nc1ncc(Cl)c(Nc2ccccc2S(=O)(=O)C(C)C)n1 | 280 |
| COc1cc(N2CCN(C(=O)C3CCOCC3)C2=O)ccc1Nc1ncc(Cl)c(Nc2ccccc2S(=O)(=O)C(C)C)n1 | 310 |
| COc1cc(N2CCN(CC(=O)N3CCC[C@H]3CO)C2=O)ccc1Nc1ncc(Cl)c(Nc2ccccc2S(=O)(=O)C(C)C)n1 | 140 |

Test system: A549
Assay: cells
Conditions: Homo sapiens, A549, 72 h
Remark: another data set of the same source
Description: Cytotoxicity against human A549 cells incubated for 72 hrs by MTT assay

| SMILES | IC50 [nM] |
| --- | --- |
| COc1cc(N2CCN(CC(=O)N3CCSCC3)C2=O)ccc1Nc1ncc(Cl)c(Nc2ccccc2S(=O)(=O)C(C)C)n1 | > 5000 |
| CNC(=O)CN1CCN(c2ccc(Nc3ncc(Cl)c(Nc4ccccc4S(=O)(=O)C(C)C)n3)c(OC)c2)C1=O | > 5000 |
| CCN(CC)C(=O)CN1CCN(c2ccc(Nc3ncc(Cl)c(Nc4ccccc4S(=O)(=O)C(C)C)n3)c(OC)c2)C1=O | > 5000 |
| COc1cc(N2CCN(C[C@@H]3CO3)C2=O)ccc1Nc1ncc(Cl)c(Nc2ccccc2S(=O)(=O)C(C)C)n1 | > 5000 |
| COc1cc(N2CCN(CC(=O)N3CCC(C)CC3)C2=O)ccc1Nc1ncc(Cl)c(Nc2ccccc2S(=O)(=O)C(C)C)n1 | > 5000 |
| COc1cc(N2CCN(C(=O)C3CCOCC3)C2=O)ccc1Nc1ncc(Cl)c(Nc2ccccc2S(=O)(=O)C(C)C)n1 | > 5000 |
| COc1cc(N2CCN(CC(=O)N3CCC[C@H]3CO)C2=O)ccc1Nc1ncc(Cl)c(Nc2ccccc2S(=O)(=O)C(C)C)n1 | 2450 |

Test system: HCC78
Assay: cells
Conditions: Homo sapiens, HCC78, 72 h
Description: Cytotoxicity against human HCC78 cells incubated for 72 hrs by MTT assay

| SMILES | IC50 [nM] |
| --- | --- |
| COc1cc(N2CCN(CC(=O)N3CCSCC3)C2=O)ccc1Nc1ncc(Cl)c(Nc2ccccc2S(=O)(=O)C(C)C)n1 | 530 |
| CNC(=O)CN1CCN(c2ccc(Nc3ncc(Cl)c(Nc4ccccc4S(=O)(=O)C(C)C)n3)c(OC)c2)C1=O | 610 |
| CCN(CC)C(=O)CN1CCN(c2ccc(Nc3ncc(Cl)c(Nc4ccccc4S(=O)(=O)C(C)C)n3)c(OC)c2)C1=O | 310 |
| COc1cc(N2CCN(C[C@@H]3CO3)C2=O)ccc1Nc1ncc(Cl)c(Nc2ccccc2S(=O)(=O)C(C)C)n1 | 570 |
| COc1cc(N2CCN(CC(=O)N3CCC(C)CC3)C2=O)ccc1Nc1ncc(Cl)c(Nc2ccccc2S(=O)(=O)C(C)C)n1 | 870 |
| COc1cc(N2CCN(C(=O)C3CCOCC3)C2=O)ccc1Nc1ncc(Cl)c(Nc2ccccc2S(=O)(=O)C(C)C)n1 | 690 |
| COc1cc(N2CCN(CC(=O)N3CCC[C@H]3CO)C2=O)ccc1Nc1ncc(Cl)c(Nc2ccccc2S(=O)(=O)C(C)C)n1 | 56 |

Test system: BaF3
Assay: cells
Conditions: Mus musculus, BaF3, 72 h

| SMILES | IC50 [nM] |
| --- | --- |
| COc1cc(N2CCN(CC(=O)N3CCSCC3)C2=O)ccc1Nc1ncc(Cl)c(Nc2ccccc2S(=O)(=O)C(C)C)n1 | 1960 |
| CNC(=O)CN1CCN(c2ccc(Nc3ncc(Cl)c(Nc4ccccc4S(=O)(=O)C(C)C)n3)c(OC)c2)C1=O | 1710 |
| CCN(CC)C(=O)CN1CCN(c2ccc(Nc3ncc(Cl)c(Nc4ccccc4S(=O)(=O)C(C)C)n3)c(OC)c2)C1=O | > 5000 |
| COc1cc(N2CCN(C[C@@H]3CO3)C2=O)ccc1Nc1ncc(Cl)c(Nc2ccccc2S(=O)(=O)C(C)C)n1 | > 5000 |
| COc1cc(N2CCN(CC(=O)N3CCC(C)CC3)C2=O)ccc1Nc1ncc(Cl)c(Nc2ccccc2S(=O)(=O)C(C)C)n1 | > 5000 |
| COc1cc(N2CCN(C(=O)C3CCOCC3)C2=O)ccc1Nc1ncc(Cl)c(Nc2ccccc2S(=O)(=O)C(C)C)n1 | > 5000 |
| COc1cc(N2CCN(CC(=O)N3CCC[C@H]3CO)C2=O)ccc1Nc1ncc(Cl)c(Nc2ccccc2S(=O)(=O)C(C)C)n1 | 1190 |

Test system: BaF3
Assay: cells
Conditions: Mus musculus, BaF3, 72 h
Remark: another data set of the same source
Description: Cytotoxicity against mouse BA/F3 cells incubated for 72 hrs by MTT assay

| SMILES | IC50 [nM] |
| --- | --- |
| COc1cc(N2CCN(CC(=O)N3CCSCC3)C2=O)ccc1Nc1ncc(Cl)c(Nc2ccccc2S(=O)(=O)C(C)C)n1 | > 5000 |
| CNC(=O)CN1CCN(c2ccc(Nc3ncc(Cl)c(Nc4ccccc4S(=O)(=O)C(C)C)n3)c(OC)c2)C1=O | > 5000 |
| CCN(CC)C(=O)CN1CCN(c2ccc(Nc3ncc(Cl)c(Nc4ccccc4S(=O)(=O)C(C)C)n3)c(OC)c2)C1=O | > 5000 |
| COc1cc(N2CCN(C[C@@H]3CO3)C2=O)ccc1Nc1ncc(Cl)c(Nc2ccccc2S(=O)(=O)C(C)C)n1 | > 5000 |
| COc1cc(N2CCN(CC(=O)N3CCC(C)CC3)C2=O)ccc1Nc1ncc(Cl)c(Nc2ccccc2S(=O)(=O)C(C)C)n1 | > 5000 |
| COc1cc(N2CCN(C(=O)C3CCOCC3)C2=O)ccc1Nc1ncc(Cl)c(Nc2ccccc2S(=O)(=O)C(C)C)n1 | > 5000 |
| COc1cc(N2CCN(CC(=O)N3CCC[C@H]3CO)C2=O)ccc1Nc1ncc(Cl)c(Nc2ccccc2S(=O)(=O)C(C)C)n1 | > 5000 |

Test system: NCI-H2228
Assay: cells
Conditions: Homo sapiens, NCI-H2228, 72 h
Description: Cytotoxicity against human NCI-H2228 cells incubated for 72 hrs by MTT assay

| SMILES | IC50 [nM] |
| --- | --- |
| COc1cc(N2CCN(CC(=O)N3CCSCC3)C2=O)ccc1Nc1ncc(Cl)c(Nc2ccccc2S(=O)(=O)C(C)C)n1 | 270 |
| CNC(=O)CN1CCN(c2ccc(Nc3ncc(Cl)c(Nc4ccccc4S(=O)(=O)C(C)C)n3)c(OC)c2)C1=O | 670 |
| CCN(CC)C(=O)CN1CCN(c2ccc(Nc3ncc(Cl)c(Nc4ccccc4S(=O)(=O)C(C)C)n3)c(OC)c2)C1=O | 870 |
| COc1cc(N2CCN(C[C@@H]3CO3)C2=O)ccc1Nc1ncc(Cl)c(Nc2ccccc2S(=O)(=O)C(C)C)n1 | 320 |
| COc1cc(N2CCN(CC(=O)N3CCC(C)CC3)C2=O)ccc1Nc1ncc(Cl)c(Nc2ccccc2S(=O)(=O)C(C)C)n1 | 350 |
| COc1cc(N2CCN(C(=O)C3CCOCC3)C2=O)ccc1Nc1ncc(Cl)c(Nc2ccccc2S(=O)(=O)C(C)C)n1 | 920 |
| COc1cc(N2CCN(CC(=O)N3CCC[C@H]3CO)C2=O)ccc1Nc1ncc(Cl)c(Nc2ccccc2S(=O)(=O)C(C)C)n1 | 170 |

Reference: ChEMBL document CHEMBL4346688, “Discovery of novel mutant-combating ALK and ROS1 dual inhibitors bearing imidazolidin-2-one moiety with reasonable PK properties” (Eur J Med Chem, 2019)
